Test results taken from patent US20180333538A1, “INJECTION APPARATUS” (Daicel Corporation, priority 2015, published 2018).
Like-named read-outs stand apart in the source and are kept apart here.

Test system: intradermal layer which is skin tissue of the rabbit in vivo
Settings: 100 μl intradermal
Method: Moreover, an object of the following experimental conditions is to confirm, when an inflammatory substance is injected to the intradermal layer which is skin tissue of the rabbit in vivo, a presence or absence of an inflammatory response (formation of erythema and eschar, and formation of edema) for each elapsed time (after 24 hours, 48 hours, and 72 hours) . In addition, the injection of an injection solution with the needled injector was performed at a constant pressurization rate.
16-week-old male Std: JW/CSK rabbit, already shaved and smooth skin-verified, was used.
An aqueous solution of the following inflammatory substance was used as the dosing liquid and the injection solution.
Inflammatory substance: acetic acid, diluted to a predetermined concentration with distilled water, dose 100 μl
Definitions of numerical values representing the experimental results in the tables with respect to each of erythema and eschar formation and edema formation are as follows.
1 Very slight erythema (barely perceptible erythema)
2 Slight erythema (clearly perceptible erythema)
3 Moderate to severe erythema
4 Severe erythema to eschar formations
1 Very slight edema (barely perceptible edema)
2 Slight edema (edema with edges perceptible due to definite raising)
3 Moderate edema (raised approximately 1 mm)
4 Severe edema (raised 1 mm or more and extending beyond the area of exposure)

[1] = Comparative example (needled injector), acetic acid 0.25%, 24 h
[2] = Comparative example (needled injector), acetic acid 0.25%, 48 h
[3] = Comparative example (needled injector), acetic acid 0.25%, 72 h
[4] = Comparative example (needled injector), acetic acid 0.5%, 24 h
[5] = Comparative example (needled injector), acetic acid 0.5%, 48 h
[6] = Comparative example (needled injector), acetic acid 0.5%, 72 h
[7] = Comparative example (needled injector), acetic acid 1.0%, 24 h
[8] = Comparative example (needled injector), acetic acid 1.0%, 48 h
[9] = Comparative example (needled injector), acetic acid 1.0%, 72 h
[10] = Comparative example (needled injector), acetic acid 1.5%, 24 h
[11] = Comparative example (needled injector), acetic acid 1.5%, 48 h
[12] = Comparative example (needled injector), acetic acid 1.5%, 72 h
[13] = Comparative example (needled injector), acetic acid 2.0%, 24 h
[14] = Comparative example (needled injector), acetic acid 2.0%, 48 h
[15] = Comparative example (needled injector), acetic acid 2.0%, 72 h
[16] = Injector 1, acetic acid 0.25%, 24 h
[17] = Injector 1, acetic acid 0.25%, 48 h
[18] = Injector 1, acetic acid 0.25%, 72 h
[19] = Injector 1, acetic acid 0.5%, 24 h
[20] = Injector 1, acetic acid 0.5%, 48 h
[21] = Injector 1, acetic acid 0.5%, 72 h
[22] = Injector 1, acetic acid 1.0%, 24 h
[23] = Injector 1, acetic acid 1.0%, 48 h
[24] = Injector 1, acetic acid 1.0%, 72 h
[25] = Injector 1, acetic acid 1.5%, 24 h
[26] = Injector 1, acetic acid 1.5%, 48 h
[27] = Injector 1, acetic acid 1.5%, 72 h
[28] = Injector 1, acetic acid 2.0%, 24 h
[29] = Injector 1, acetic acid 2.0%, 48 h
[30] = Injector 1, acetic acid 2.0%, 72 h

## CC(=O)O [Acetic acid, acetic acid]
[1]
  Edema: 0
  Erythema etc.: 1
[2]
  Edema: 0
  Erythema etc.: 1
[3]
  Edema: 0
  Erythema etc.: 1
[4]
  Edema: 0
  Erythema etc.: 1
[5]
  Edema: 0
  Erythema etc.: 1
[6]
  Edema: 0
  Erythema etc.: 1
[7]
  Edema: 1
  Erythema etc.: 1
[8]
  Edema: 1
  Erythema etc.: 1
[9]
  Edema: 1
  Erythema etc.: 1
[10]
  Edema: 2
  Erythema etc.: 1
[11]
  Edema: 2
  Erythema etc.: 1
[12]
  Edema: 2
  Erythema etc.: 1
[13]
  Edema: 3
  Erythema etc.: 1
[14]
  Edema: 3
  Erythema etc.: 1
[15]
  Edema: 2
  Erythema etc.: 1
[16]
  Edema: 0
  Erythema etc.: 1
[17]
  Edema: 0
  Erythema etc.: 1
[18]
  Edema: 0
  Erythema etc.: 1
[19]
  Edema: 0
  Erythema etc.: 1
[20]
  Edema: 0
  Erythema etc.: 1
[21]
  Edema: 0
  Erythema etc.: 1
[22]
  Edema: 0
  Erythema etc.: 1
[23]
  Edema: 0
  Erythema etc.: 1
[24]
  Edema: 0
  Erythema etc.: 1
[25]
  Edema: 0
  Erythema etc.: 1
[26]
  Edema: 0
  Erythema etc.: 1
[27]
  Edema: 0
  Erythema etc.: 1
[28]
  Edema: 1
  Erythema etc.: 1
[29]
  Edema: 1
  Erythema etc.: 1
[30]
  Edema: 1
  Erythema etc.: 1
